# Source: patent publication US11517575B2, “Use of minaprine to reduce tumor growth” (Institut Gustave-Roussy, priority 2019, dated 2022)
# Tests used:
# HCT116 cells = assay: Screening of chemical libraries for IR-mediated cellular cannibalism (imaging flow cytometry, confocal validation); assay type: cell-based, human; conditions: 8 Gy irradiated HCT116 cells, 10 μM compound, 24 h culture
# Description: FIG. 4 Identification of cannibalism modulators triggered by ionizing radiation. Compounds from the Prestwick (A) and CEA (F) libraries were tested for their capacities to induce cellular cannibalism after ionizing radiation. Cannibal cells were detected after homotypic cultures of 8 gray γ-irradiation HCT116 cells in the presence or absence of 10 μM of the Prestwick (A) and CEA […] library compounds. Each dot represents one compound. Representative images are shown in (B, G). (C, H) HCT116 cells were treated with the indicated drugs. After 24 h of treatment, cell death was monitored by staining with 3,3 dihexyloxacarbocyanine iodide (DiOC6(3)) and PI^+, and the percentage of dying (DiOC6(3)^low PI^−, open bars) and dead (DiOC6(3)^low PI^+, closed bars) cells was determined by cytofluorometry. Validation of the cannibalism inducers by fluorescent microscopy. Representative images (D, I) and quantification (E, J) are shown. Results are means s.e.m. of triplicate determinations.
# Untreated HCT116 cells were labeled with CMFDA (green fluorescence, CMFDA^+) or CMTMR, (red fluorescence, CMTMR) and treated HCT116 cells with CMFDA (green fluorescence, CMFDA^+). The following cell mixtures were performed: untreated CMTMR^+ HCT116 cells were mixed with untreated CMFDA^+ HCT116 cells, or untreated CMTMR^+ HCT116 cells were mixed with treated CMFDA^+ HCT116 cells. Then, cells were co-cultured during 24 hours in the presence or absence of the pharmacological inhibitor of ROCK, Y27632 (30 μM), the pan-caspase inhibitor, Z-VAD-fmk (ZVAD, 100 μM), the inhibitor of caspase-1, Ac-YVAD-cmk (YVAD, 100 μM), the necroptosis inhibitor, Necrostatin-1 (NEC1, 30 μM), the inhibitor of the vacuolar type H(+)-ATPase (V-ATPase) inhibiting autophagy, Bafilomycin A1 (BafA1, 50 nM), the inhibitor of Cdks with an anti-mitotic activity, Roscovitine (Rosco, 10 μM). After 24 hours of co-culture, both detached and adherent cells were collected and stained with Hoechst […] (10 μg/mL) during 1 hour at 37° C. in warmed complete medium. To detect phosphatidylserine (PS) exposure and plasma membrane permeability, labeled HCT116 cells were successively incubated with Biotin-AnnexinV (BD Pharmingen) as recommended by manufacturer, […] BV786-Streptavidin (BD Biosciences) and 3 μM DRAQ7 (BioStatus) during 15 minutes at 25° C. After washing with PBS solution, samples were immediately analyzed using an imaging flow cytometer FlowSight® (Amnis®, part of EMD Millipore). Data were acquired at a 20× magnification, using INSPIRE software. The 405 nm, 488 nm, and 561 nm lasers were used for excitation. Brightfield, Annexin V-BV786, DRAQ7, CMFDA, CMTMR and Hoechst […] stainings were detected using respectively channels for 420-480 nm, 745-800 nm, 642-745 nm, 480-560 nm, 595-642 nm and 430-505 nm. At least 1000 events of cells per sample were analyzed. Additional single-labeled controls were prepared to normalize fluorescent signal across different channels. Acquired data were analyzed using the IDEAS analysis software (v6.1; Merck-Millipore). Gating strategy was the following. Cells were gated for focused cells using the Gradient RMS feature. Cells were gated for single cells using the aspect ratio and area features. For the cannibalism detection, cells were gated in the double positive CMFDA^+ and CMTMR^+ staining.
# To detect PS exposure, plasma membrane permeability and cell cycle progression, cells were after co-culture sequentially labeled with specific fluorescent probes (such as FITC-conjugated AnnexinV, propidium iodide, and Hoechst 33342) and analyzed by flow cytometry. Both detached and adherent cells were collected and stained with Hoechst […] (10 μg/ml) during 1 hour at 37° C. in warmed complete medium. After washing with PBS, HCT116 cells were suspended in 1× binding buffer supplemented with fluorescein isothiocyanate (FITC)-conjugated Annexin V (BD Biosciences) and propidium iodide (PI, 1 μg/mL) (Sigma), as per manufacturer's instructions. […]
# MCA205 cells [1] = assay: Cell death of treated MCA205 cells (DiOC6(3)/PI cytofluorometry); assay type: cell-based, mouse; conditions: 10 μM compound alone, 24 h
# Description: (§1) FIG. 5. Identification of cannibalism modulators as immunogenic cell death inducers. MCA205 (A) or CT26 (E, I, M, Q) cells were treated with the indicated drugs. After 24 h of coculture with the indicated treatment, cell death was monitored by staining DiOC6(3) and PI, and the percentage of dying (DiOC6(3)^low PI^−, open bars) and dead (DiOC6(3)^low PI^+, closed bars) cells was determined by cytofluorometry. (B-D) MCA205 cells or (F-H, J-L, N-P, R-T) CT26 cells cocultured after x irradiation with the indicated compounds were inoculated subcutaneously into the right flank of […] or BALB/c mice, respectively. Seven days later, the mice were rechallenged with live cells injected into the opposite flank, and tumor growth was monitored (five mice per group).
# (§2) The combination of IRCCE with IR induces efficient antitumor immunity. Considering that immunogenic cell death (ICD) inducers were identified (such as Digoxin, Digitoxin, Lanatoside C or Doxorubicin hydrochloride)^3, 4, 48-51) as IRCCE, the ability of these compounds to induce an antitumor immunity after radiotherapy was evaluated. […] Tumors were evaluated weekly using a common caliper. […] One week later, 5×10^5 untreated control cells were inoculated into the contralateral flank of mice and tumors were evaluated weekly using a common caliper. […]
# MCA205 cells [2] = assay: Anti-tumor vaccination assay, MCA205 cells in C57BL/6 mice; assay type: in vivo, mouse; conditions: rechallenge one week later
# Description: as §1, §2
# CT26 cells = assay: Anti-tumor vaccination assay, CT26 cells in BALB/c mice; assay type: in vivo, mouse; conditions: 8 Gy + 10 μM compound 24 h
# Description: as §1
# FIG. 6. Tumor vaccination experiments. CT26 cells were treated for 24 hours with 10 μM VP331 (A, F, K), 10 μM Minaprine (B, G, L), 10 μM Lopa87 (C, H, M), 10 μM SG6163F (D, I, N), 10 μM Azaguanine-8 (8-aza) (E, J, O) alone or combined with 8 Gy ionizing radiation and inoculated (s.c.) into immunocompetent BALB/c mice, which were rechallenged at the opposite flank 7 days later with the same cancer cells. The percentage of tumor-free mice was evaluated three times a week for the following 38 days. Percentage of total tumor free mice (A-E), tumor free-mice at the first injection site (F to J, P) or at the second injection site (K to O, Q) are shown. (*P<0.05, **P<0.01, ***P<0.001, two-way ANOVA).
# The combination of IRCCE with IR induces efficient antitumor immunity. Considering that immunogenic cell death (ICD) inducers were identified (such as Digoxin, Digitoxin, Lanatoside C or Doxorubicin hydrochloride)^3, 4, 48-51) as IRCCE, the ability of these compounds to induce an antitumor immunity after radiotherapy was evaluated. First, a preclinical approaches was developed to study the immunological effects of IRCCE on two mouse models of carcinoma (colon CT26 carcinoma and fibrosarcoma MCA205). Initially, the ability of the combination of IRCCE+IR to trigger a specific anti-tumor immune response was appreciated using immunocompetent mice through anti-tumor vaccination assays. According to previously published studies^52, the injection of cancer cells succumbing to an immunogenic cell death (ICD) into immunocompetent mice must elicit a protective immune response that is specific for tumor antigens. Thus, 3×10^5 MCA205 cells were first treated with 10 μM of SG6163F for 24 hours. Then, treated cells were inoculated subcutaneously in 200 μl PBS into the lower flank of 8-week-old female C57BL/6 mice. One week later, 3×10^4 untreated control cells were inoculated into the contralateral flank of mice. Tumors were evaluated weekly using a common caliper. Animals bearing tumors that exceeded 20-25% body mass were euthanatized. […] Then, 3×10^6 CT26 cells were irradiated with 8 Gy in presence of 10 μM of SG6163F (FIGS. 5E and 5F), VP331 (FIGS. 5I and 5J), Minaprine dihydrochloride (FIGS. 5M and 5N) or LOPA87 (FIGS. 5Q and 5R) for 24 hours. Then, cells were inoculated as previously described subcutaneously in […] into the lower flank of 8-week-old female BALB/c mice. One week later, 5×10^5 untreated control cells were inoculated into the contralateral flank of mice and tumors were evaluated weekly using a common caliper. As previously mentioned, animals bearing tumors that exceeded 20-25% body mass were euthanatized. The percentage of dying cells in each condition was evaluated by determining with DiOC(6)3/IP staining (FIGS. 5E, 5I, 5M and 5Q). Finally, the ability of these compounds to repress the growth of cancer cells that have been injected 7 days after injection of irradiated and treated cancer cells was appreciated.
# A second anti-tumor vaccination assay was done on CT26 mouse models of carcinoma as previously described. […]
smiles,measurement,setting,value
O=C1NC(c2ccccc2)=N/C1=C\c1cc2ccccc2c2ccccc12 [SG6163F],enhancement of IR-mediated cellular cannibalism,HCT116 cells,efficient cellular cannibalism enhancer
same,increase of cell death in vitro,MCA205 cells [1],not able to induce a significant increase of cell death
same,protective response after inoculation of untreated cells,"MCA205 cells [2]; MCA205 cells treated with 10 μM compound alone, s.c. in C57BL/6 mice",did not exhibit a protective response
same,mice with protective response,"MCA205 cells [2]; MCA205 cells treated with 8 Gy of IR and 10 μM compound, C57BL/6 mice",3 of 5
same,frequency of mice showing a protective response,"CT26 cells; first assay: CT26 cells, rechallenge one week later",significant increase in the frequency of mice showing a protective response
same,frequency of mice showing a protective response,"CT26 cells; second assay: CT26 cells, rechallenge 7 days later",Significant increases in the frequency of mice showing a protective response
